Results taken from ChEMBL document CHEMBL1137993, “Novel histone deacetylase inhibitors: cyclic tetrapeptide with trifluoromethyl and pentafluoroethyl ketones” (Bioorg Med Chem Lett, 2004).

Test system: Nucleic Acid

SMILES | EC50 [µM]
CC[C@H](C)[C@@H]1NC(=O)[C@@H](Cc2ccc(OC)cc2)NC(=O)[C@H](CCCCCC(=O)C(F)(F)F)NC(=O)[C@H]2CCCN2C1=O | 3.09
CC(/C=C/C(=O)NO)=C\[C@@H](C)C(=O)c1ccc(N(C)C)cc1 [TRICHOSTATIN] | 0.77
CC[C@H](C)[C@@H]1NC(=O)[C@@H](Cc2ccc(OC)cc2)NC(=O)[C@H](CCCCCC(=O)C(F)(F)C(F)(F)F)NC(=O)[C@H]2CCCN2C1=O | 31.1
